The values below are quoted from earlier work in PMC6412877 (Molecules, 2019).

For orientation: IC50 means the concentration at which inhibition is half-maximal.

One series relates to isolated ECD (GLP-1R). Conditions: ref [23],[24]; cited from earlier work. An excerpt: (§1) GLP-1R, is defined by seven transmembrane helices, an extracellular N terminus, and an intracellular C terminus, which is ligand binding via the extracellular and intracellular face, respectively, belongs to family B1 of the seven-transmembrane G protein-coupled receptors.
The next series deals with full-length GLP-1R. Conditions: ref [23],[24]; cited from earlier work.
Description: as §1

On to `CC[C@H](C)[C@H](NC(=O)[C@H](Cc1ccccc1)NC(=O)[C@H](CCC(=O)O)NC(=O)[C@H](CCCCN)NC(=O)[C@H](C)NC(=O)[C@H](C)NC(=O)[C@H](CCC(N)=O)NC(=O)CNC(=O)[C@H](CCC(=O)O)NC(=O)[C@H](CC(C)C)NC(=O)[C@H](Cc1ccc(O)cc1)NC(=O)[C@H](CO)NC(=O)[C@H](CO)NC(=O)[C@@H](NC(=O)[C@H](CC(=O)O)NC(=O)[C@H](CO)NC(=O)[C@@H](NC(=O)[C@H](Cc1ccccc1)NC(=O)[C@@H](NC(=O)CNC(=O)[C@H](CCC(=O)O)NC(=O)[C@H](C)NC(=O)[C@@H](N)Cc1c[nH]cn1)[C@@H](C)O)[C@@H](C)O)C(C)C)C(=O)N[C@@H](C)C(=O)N[C@@H](Cc1c[nH]c2ccccc12)C(=O)N[C@@H](CC(C)C)C(=O)N[C@H](C(=O)N[C@@H](CCCCN)C(=O)NCC(=O)N[C@@H](CCCNC(=N)N)C(N)=O)C(C)C` [GLP-1, Glucagon-like peptide-1], for which the values for the IC50 in the series on isolated ECD (GLP-1R) and in the series on full-length GLP-1R were about 100 nM and about 1 nM, respectively.
